Experimental data: patent US8470844B2, “Imidazoacridinone derivative compounds and methods for their use” (Technion Research & Development Foundation Limited, priority 2008, dated 2013)

Key:
A549/K1.5 cells = test: MTT cytotoxicity assay, ABCG2-overexpressing A549/K1.5 cells; assay type: cell-based, Human; conditions: for IC50: ABCG2-overexpressing A549/K1.5 cells, 96 hours exposure, MTT; for RF (resistance fold): IC50 of A549/K1.5 cells divided by IC50 of parental A549 cells
Protocol: (§1) Tissue culture: Human non-small cell lung cancer A549 cells and T-cell leukemia CCRF-CEM cells were grown under monolayer conditions or up to a maximal density of 10^6 cells/ml (for CCRF-CEM cells) in RPMI-1640 medium (GIBCO) supplemented with 10% fetal calf serum, 2 mM glutamine, 100 μg/ml penicillin and 100 μg/ml streptomycin (Biological Industries, Beth-Haemek, Israel) in a humid atmosphere of 5% CO2. Drug resistant A549/K1.5 cells with ABCG2 overexpression were maintained under a continuous drug selection with 1.5 μM C-1305. Bram, E. E., et al., (2007) Biochem Pharmacol 74(1), 41-53.
(§2) Cytotoxicity and growth inhibition assays: The cytotoxic activity of the various IA antitumor agents was determined using the MTT assay. Poindessous, V., et al., (2003) Clin Cancer Res 9(7), 2817-2825.
(§3) Exponentially growing cells were seeded at 5×10^3 cells/well in 24-well plates (2 ml medium/well). Following an overnight incubation, cells were exposed to different drug concentrations for 96 hours. Cellular viability was determined by adding the tetrazolium salt MTT for 4 h at 37° C., followed by solubilization of the intracellular precipitated formazan in 1 ml DMSO and absorbance was determined by a microplate reader (ASYS Hitech GmbH, Austria). Drug concentrations required to inhibit cell growth by 50% (IC50) compared with untreated controls were determined from the curves of survival versus drug concentrations using the SlideWrite software (Advanced Graphics Software, Inc., Encinitas, Calif.). Resistance folds (RF) were calculated by dividing the IC50 value of the resistant cells by that of the parental cell line. Values presented are means of at least three independent experiments, each performed in duplicates.
Quantitative evaluation of ABCG2 interaction with various IA derivatives: The extent of ABCG2-mediated resistance was expressed using the Resistance Fold (RF) parameter representing the ratio between the IC50 values of the resistant cells and parental cells. Likewise, ABCG2-dependent differential accumulation of IAs in ABCG2-overexpressing A549/K1.5 cells was compared using the ratio of IA accumulation in the presence or absence of the potent ABCG2 inhibitor FTC. This was termed the FTC-dependent Accumulation Fold (AF) and was determined for each IA at a constant IA concentration of 10 μM.

A549 cells = test: MTT cytotoxicity assay, parental A549 cells; assay type: cell-based, Human; conditions: 96 hours exposure, mean of at least three experiments
Protocol: as §1, §2, §3

ABCG2 (A549/K1.5 cells) [1] = target: T1, ABCG2 (A549/K1.5 cells) (Homo sapiens, UniProt Q9UNQ0); test: Fluorescence microscopy of nuclear accumulation of IAs in A549/K1.5 cells; assay type: cell-based; conditions: 10 μM IA, 1 hr, presence or absence of 5 μM FTC
T1 construct: Drug resistant A549/K1.5 cells with ABCG2 overexpression were maintained under a continuous drug selection with 1.5 μM C-1305; endogenous in cells; host or cells: A549/K1.5 (C-1305-selected subline of human non-small cell lung cancer A549)
T1 sequence (Q9UNQ0 1-655): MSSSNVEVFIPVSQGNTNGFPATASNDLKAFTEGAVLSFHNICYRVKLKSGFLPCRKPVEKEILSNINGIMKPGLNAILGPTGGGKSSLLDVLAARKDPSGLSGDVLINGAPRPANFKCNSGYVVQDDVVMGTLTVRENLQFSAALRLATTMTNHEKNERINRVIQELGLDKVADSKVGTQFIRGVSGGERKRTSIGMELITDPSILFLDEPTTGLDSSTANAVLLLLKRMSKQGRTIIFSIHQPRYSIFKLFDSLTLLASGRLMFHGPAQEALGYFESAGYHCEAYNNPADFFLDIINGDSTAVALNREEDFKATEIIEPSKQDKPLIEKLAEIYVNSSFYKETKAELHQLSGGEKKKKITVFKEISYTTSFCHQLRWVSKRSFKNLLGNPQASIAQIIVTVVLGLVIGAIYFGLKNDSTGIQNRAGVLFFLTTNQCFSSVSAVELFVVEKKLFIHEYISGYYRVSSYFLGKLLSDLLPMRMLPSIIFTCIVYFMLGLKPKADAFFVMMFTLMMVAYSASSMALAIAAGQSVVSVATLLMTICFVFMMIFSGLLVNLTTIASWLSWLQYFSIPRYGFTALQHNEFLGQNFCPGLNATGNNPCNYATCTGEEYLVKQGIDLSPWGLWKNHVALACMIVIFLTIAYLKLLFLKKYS
Protocol: In immunofluorescence microscopy of plasma membrane targeting of ABCG2 and nuclear accumulation of IAs, cells (1×10^4/well) were seeded in 24-well plates (1 ml medium/well) and incubated for 2 days, following which some wells were supplemented with 10 μM IA-containing medium±5 μM FTC and incubated for 1 h at 37° C. Cells were then washed twice with ice-cold PBS containing 0.1% BSA and blocked for 10 min at 4° C. with PBS containing 5% BSA. Cells were then washed once with ice-cold PBS containing 0.1% BSA and incubated for 30 min at 4° C. with a Phycoerythrin-conjugated, affinity-purified 5D3 mouse anti-human ABCG2 monoclonal antibody (1:100; eBioscience). Unspecific fluorescence was determined using cells that were incubated only with a secondary Phycoerythrin (PE)-conjugated goat anti-mouse IgG (1:200; Jackson Immunoresearch Labs, West Grove, Pa.). Cells were then washed twice and subjected to fluorescence microscopy using a DMIRE2 fluorescence microscope equipped with a DC300FX camera (Leica Microsystems, Wetzlar, Germany).
In order to exclude the possibility that differential subcellular accumulation of IA derivatives is the basis of the observed difference in cytotoxicity and cellular fluorescence, A549/K1.5 cells were incubated with 10 μM of selected IA derivatives from both group A and B in the presence or absence of FTC and subjected to fluorescence microscopy.

[2] = tested on: untransfected HEK293 cells; test: Flow cytometric accumulation in untransfected HEK293 cells; assay type: cell-based, Human; conditions: 1 μM IA, ±5 μM FTC
Protocol: For cytotoxicity and accumulation experiments, cells were grown in drug-free medium for at least one week prior to the experiments. Human embryonic kidney cells (HEK293) and their stable transfectants overexpressing the R482, G482 and T482 ABCG2 were grown in the above RPMI-1640 medium supplemented with 2 mg/ml G-418. Bram, E. E., et al., (2006) Cancer Chemother Pharmacol 58(6), 826-834.
IA derivative and tetramethylrosamine (TMR) accumulation in parental HEK293 and their HEK293/ABCG2 R/G/T482 transfectants were carried out as described herein with the a slight amendment of using a single IA concentration of 1 μM ±FTC (5 μM) for the selected as well as 0.1 μM for TMR accumulation. Robey, R. W., et al., (2003) Br J Cancer 89(10), 1971-1978. Cellular fluorescence was determined using a FACSCalibur (BD Bioscience, San Jose, Calif. USA) flow cytometer. FL1-H excitation of IAs was at 488 nm and emission was collected at 525 nm, whereas FL2-H excitation of TMR was at […] and emission was collected at 574 nm. Flow cytometric results are presented as means±SD of 3 independent experiments.
Bram, E. E., et al., (2006) Cancer Chemother Pharmacol 58(6), 826-834.

ABCG2 (A549/K1.5 cells) [3] = target: T1, ABCG2 (A549/K1.5 cells); test: Flow cytometric IA accumulation in A549/K1.5 cells with or without fumitremorgin C; assay type: cell-based
Protocol: In this assay, one ml aliquots of A549/K1.5 or CCRF-CEM cell suspensions (1×10^6 cells/ml) in growth medium containing 20 mM Hepes at pH 7.3 were distributed into 1.5 ml polypropylene Eppendorf test tubes. […] Rabindran, S. […] Alternatively, in time-course experiments, IA derivatives at a constant concentration of 10 μM were added to a CCRF-CEM cell suspension incubated at 37° C., and 1 ml aliquots were removed at variable time points up to 1 hour. Following incubation, test tubes were transferred to ice and centrifuged at 4° C. Cells were then washed twice and re-suspended in ice-cold PBS containing 1% fetal calf serum and kept in the dark at 4° C. until analysis. […] Quantitative evaluation of ABCG2 interaction with various IA derivatives: The extent of ABCG2-mediated resistance was expressed using the Resistance Fold (RF) parameter representing the ratio between the IC50 values of the resistant cells and parental cells.

| Compound | IC50 (A549/K1.5 cells) | RF (resistance fold) (A549/K1.5 cells) | IC50 (A549 cells) | hypersensitivity of A549/K1.5 cells (A549/K1.5 cells; versus parental A549 cells) | nuclear accumulation (fluorescence microscopy) (ABCG2 (A549/K1.5 cells) [1]) | efflux (in words) [2] | resistance of A549/K1.5 cells (A549/K1.5 cells; versus parental A549 cells) | resistance of A549/K1.5 cells (in words) (A549/K1.5 cells; versus parental A549 cells) | ABCG2-mediated extrusion / interaction with ABCG2 (in words) (ABCG2 (A549/K1.5 cells) [3]) |
| --- | --- | --- | --- | --- | --- | --- | --- | --- | --- |
| CN(C)CCNc1ccc2ncn3c4ccccc4c(=O)c1c23.Cl [C-1176] | 1.21 ± 0.65 µM | 0.51 | 2.35 ± 0.75 µM |  |  |  |  |  |  |
| CN(C)CCCNc1ccc2ncn3c4ccccc4c(=O)c1c23.Cl [C-1212] | 1.93 ± 0.84 µM | 1.02 | 1.89 ± 0.42 µM |  |  |  |  |  |  |
| Cc1nc2ccc(NCCN(C)C)c3c(=O)c4ccccc4n1c23.Cl [C-1213] | 18.3 ± 2.4 µM | 1.49 | 12.3 ± 2.5 µM |  |  |  |  |  |  |
| CN(C)CCCCCNc1ccc2ncn3c4ccccc4c(=O)c1c23.Cl [C-1266] | 0.56 ± 0.002 µM | 0.20 | 2.81 ± 0.27 µM | 5.0 fold | comparable and significant nuclear accumulation regardless of ABCG2 inhibition by FTC |  |  |  |  |
| Cc1nc2ccc(NCCN(C)C)c3c(=O)c4cc(O)ccc4n1c23.Cl [C-1309] | 3.22 ± 0.18 µM | 60.80 | 0.05 ± 0.007 µM |  |  | not from untransfected HEK293 cells | 61 fold | prominent resistance |  |
| CCCCN(CCCC)CCNc1ccc2nc(C)n3c4ccc(O)cc4c(=O)c1c23.Cl [C-1315] | 3.46 ± 0.16 µM | 2.05 | 1.69 ± 0.26 µM |  |  |  |  |  | failed to display any significant interaction with ABCG2 |
| CCN(CC)CCNc1ccc2ncn3c4ccc(OC)cc4c(=O)c1c23.Cl [C-1330] | 0.97 ± 0.08 µM | 0.45 | 2.16 ± 0.27 µM | 2.2 fold |  |  |  |  |  |
| CCN(CC)CCCNc1ccc2ncn3c4ccc(O)cc4c(=O)c1c23.Cl [C-1335] | 1 ± 0.25 µM | 11.10 | 0.09 ± 0.004 µM |  |  |  |  | prominent resistance |  |
| CN(C)CCCNc1ccc2ncn3c4ccc(O)cc4c(=O)c1c23.Cl [C-1371] | 0.7 ± 0.03 µM | 17.90 | 0.04 ± 0.006 µM |  |  |  |  | prominent resistance |  |
| COc1ccc2c(c1)c(=O)c1c(NCCCN(C)C)ccc3nc(C)n2c31.Cl [C-1375] | 1.25 ± 0.11 µM | 0.96 | 1.3 ± 0.06 µM |  |  |  |  |  |  |
| CCN(CC)CCCNc1ccc2nc(C)n3c4ccc(OC)cc4c(=O)c1c23.Cl [C-1379] | 0.68 ± 0.06 µM | 0.63 | 1.07 ± 0.03 µM |  |  |  |  |  |  |
| CCN(CC)CCNc1ccc2ncn3c4ccccc4c(=O)c1c23.Cl [C-1415] | 2.38 ± 0.12 µM | 0.88 | 2.7 ± 0.21 µM |  |  |  |  |  |  |
| CCN(CC)CCNc1ccc2ncn3c4cc(O)ccc4c(=O)c1c23.Cl [C-1419] | 31.3 ± 2.55 µM | 10.70 | 2.92 ± 0.42 µM |  |  |  |  | prominent resistance |  |
| CN(C)CCCCCNc1ccc2ncn3c4ccc(O)cc4c(=O)c1c23.Cl [C-1492] | 17.2 ± 1.95 µM | 10.10 | 1.69 ± 0.12 µM |  |  |  |  | prominent resistance |  |
| CCN(CC)CCNc1ccc2ncn3c4c(OC)ccc(OC)c4c(=O)c1c23.Cl [C-1503] | 3.09 ± 0.74 µM | 0.88 | 3.5 ± 0.64 µM |  |  |  |  |  |  |
| CCN(CC)CCNc1ccc2ncn3c4ccc(C)cc4c(=O)c1c23.Cl [C-1554] | 3.07 ± 0.8 µM | 1.51 | 2.02 ± 0.33 µM |  |  |  |  |  |  |
| CCN(CC)CCNc1ccc2ncn3c4ccc(C(C)(C)C)cc4c(=O)c1c23.Cl [C-1558] | 2.51 ± 0.17 µM | 1.70 | 1.48 ± 0.25 µM |  |  |  |  |  |  |
| CN(C)CCNc1ccc2ncn3c4ccc(O)cc4c(=O)c1c23.Cl [C-1584] | 0.25 ± 0.01 µM | 19.20 | 0.01 ± 0.002 µM |  |  |  |  | prominent resistance |  |
| CCN(CC)CCNc1ccc2ncn3c4c(O)cccc4c(=O)c1c23.Cl [C-1633] | 9.83 ± 1.44 µM | 4.35 | 2.26 ± 0.33 µM |  |  |  |  | prominent resistance |  |
| CCN(CC)CCCCCCCCCNc1ccc2ncn3c4ccc(O)cc4c(=O)c1c23.Cl [C-2018] | 2.13 ± 0.62 µM | 1.38 | 1.54 ± 0.31 µM |  |  |  |  |  | failed to display any significant interaction with ABCG2 |
